Patent publication US9018224B2, “Substituted cyclopropyl compounds useful as GPR119 agonists” (Merck Sharp & Dohme Corp., priority 2011, dated 2015)

target: T1, human GPR119 (Homo sapiens, UniProt Q8TDV5); assay: Measurement of GPR119 signaling by cAMP (LANCE cAMP kit or HTRF) in HEK293 cells transfected with human GPR119; assay type: cell-based; settings: agonist cAMP response in HEK293 cells stably transfected with human GPR119; patent does not say which of the two cAMP formats (LANCE or HTRF)
T1 sequence (Q8TDV5 1-308 limits assumed): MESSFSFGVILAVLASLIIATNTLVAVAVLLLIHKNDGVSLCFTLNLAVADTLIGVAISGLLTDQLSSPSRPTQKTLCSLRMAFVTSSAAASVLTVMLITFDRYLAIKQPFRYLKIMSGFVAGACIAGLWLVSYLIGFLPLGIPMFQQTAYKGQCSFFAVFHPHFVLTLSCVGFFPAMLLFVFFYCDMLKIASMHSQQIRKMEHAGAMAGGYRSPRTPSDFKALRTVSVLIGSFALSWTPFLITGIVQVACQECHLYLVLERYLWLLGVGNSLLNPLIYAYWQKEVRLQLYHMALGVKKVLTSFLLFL
Experimental: Measurement of GPR119 Signaling Using LANCE 384-Well cAMP Kit
The adenylate cyclase assay was constructed following the LANCE™ cAMP Kit (Perkin Elmer, AD0264) instructions. […] The reaction was stopped by incubating with the supplied detection buffer containing the europium chelate of the Eu-SA/Biotin-cAMP tracer for 3 hours. The assay was performed in duplicate in a 384 well plate for duplicate plates. […] Basal activity was determined using a DMSO control and maximum response was defined as cAMP stimulation produced by an internal agonist control. Standard cAMP concentrations were assayed concurrently for conversion of fluorescence signal to cAMP level. The data was analyzed using 4-parameter curve fit in Microsoft Excel
Measurement of GPR119 Signaling Using a Cyclic AMP (cAMP) Homogenous Time Resolved Fluorescence (HTRF) Assay
Chinese hamster ovary (CHO) cell lines stably transfected with the permissive guanine nucleotide binding protein alpha 15 (Gα15) and murine GPR119 were maintained in DMEM media containing FBS, penicillin-streptomycin, puromycin, and G418 (geneticin). […] Agonist activation of the GPR119 receptor was measured in receptor transfected cells described above, treated with compounds of this invention, using a commercial homogenous time resolved fluorescence (HTRF) kit for measurement of cAMP (CisBio, Bedford, Mass.). The assay was performed in 96-well half-volume plates (murine) or 384-well plates (human) following the manufacturers instructions. Briefly, suspended cells were incubated with a dose titration of test compound at room temperature for 60 min, lysed, and incubated with HTRF reagents for an additional 60 min. The plate was read using an Envision multilabel reader (Perkin Elmer) adjusted to read time resolved fluorescence and the cAMP concentrations were extrapolated from a cAMP calibration curve. […] The concentration of test compound required to stimulate a half-maximal response (EC50), and efficacy as compared to an internal agonist control, was determined from a sigmoidal 4-parameter curve fit of the resulting plot of normalized activity versus compound concentration.

Row | SMILES | EC50
1 | CC1(NC(=O)Cc2ccc(OCC[C@@H]3C[C@@H]3C3CCN(c4ncc(Cl)cn4)CC3)cc2F)CCCCC1 [Example 91] | 9.3 nM
2 | O=C(Cc1ccc(OCC[C@@H]2C[C@@H]2C2CCN(c3ncc(Cl)cn3)CC2)cc1Cl)N1CCC1 [Example 20, 1-(azetidin-1-yl)-2-[2-chloro-4-(2-{(1S,2R)-2-[1-(5-chloropyrimidin-2-yl)piperidin-4-yl]cyclopropyl}ethoxy)phenyl]ethanone] | 0.32 nM
3 | CCOc1cnc(N2CCC([C@H]3C[C@H]3CCOc3cc(F)c(CC(=O)N4CC(F)C4)c(F)c3)CC2)nc1 [Example 230] | 0.11 nM
4 | O=C(Cc1ccc(OCC[C@@H]2C[C@@H]2C2CCN(c3ncc(Cl)cn3)CC2)cc1F)N1Cc2nc(-c3ccccc3)[nH]c2C1 [Example 197] | 6.8 nM
5 | COCc1cnc(N2CCC([C@H]3C[C@H]3CCOc3cc(F)c(CC(=O)N4CCC4)c(F)c3)CC2)nc1 [Example 219, 1-(azetidin-1yl)-2-(2,6-difluoro-4-{2[(1S,2R)-2-{1-[5-(methoxylmethyl)pyrimidin-2yl]piperidin-4-yl}cyclopropyl]ethoxyl}phenyl)ethanone] | 0.18 nM
6 | O=C(Cc1ccc(OCC[C@@H]2C[C@@H]2C2CCN(c3ncc(Cl)cn3)CC2)cc1F)N1CCn2ncnc2C1 [Example 135] | 0.54 nM
7 | CC(C)(O)c1cnc(N2CCC([C@H]3C[C@H]3CCOc3cc(F)c(CC(=O)N4CCC4)c(F)c3)CC2)nc1 [Example 206] | 0.71 nM
8 | Cc1nnc(Cc2ccc(OCC[C@@H]3C[C@@H]3C3CCN(c4ncc(Cl)cn4)CC3)cc2F)o1 [Example 244, 5-chloro-2-{4-[(1R,2S)-2-(2-{3-fluoro-4-[(5-methyl-1,3,4-oxadizol-2-yl)methyl]phenoxy}ethyl)cyclopropyl]piperidin-1-yl}pyrimidine] | 5.1 nM
9 | N#Cc1cc(OCC[C@@H]2C[C@@H]2C2CCN(c3ncc(Cl)cn3)CC2)ccc1CC(=O)N1CCC1 [Example 23, 2-[2-(azetidin-1-yl)-2-oxoethyl]-5-(2-{(1S,2R)-2-[1-(5-chloropyrimidin-2-yl)piperidin-4-yl]cyclopropyl}ethoxy)benzonitrile] | 0.32 nM
10 | O=C(Cc1ccc(OCC[C@@H]2C[C@@H]2C2CCN(c3ncc(Cl)cn3)CC2)cc1F)NCC1CCCCC1 [Example 112] | 6.1 nM
11 | O=C(Cc1ccc(OCC[C@@H]2C[C@@H]2C2CCN(c3ncc(Cl)cn3)CC2)cc1F)N1Cc2cccnc2C1 [Example 123] | 0.78 nM
12 | O=C(Cc1ccc(OCC[C@@H]2C[C@@H]2C2CCN(c3ncc(Cl)cn3)CC2)c(F)c1)N1CCC1 [Example 250] | 2.2 nM
13 | O=C(Cc1ccc(OCC[C@@H]2C[C@@H]2C2CCN(c3ncc(Cl)cn3)CC2)cc1F)N1CCc2ccncc2C1 [Example 128] | 2.3 nM
14 | Cn1nc(C(F)(F)F)c2c1CCN(C(=O)Cc1ccc(OCC[C@@H]3C[C@@H]3C3CCN(c4ncc(Cl)cn4)CC3)cc1F)C2 [Example 187] | 2 nM
15 | CC1c2cccn2CCN1C(=O)Cc1ccc(OCC[C@@H]2C[C@@H]2C2CCN(c3ncc(Cl)cn3)CC2)cc1F (some centres unmarked) [Example 174] | 1.2 nM
16 | O=C(Cc1ccc(OCC[C@@H]2C[C@@H]2C2CCN(c3ncc(Cl)cn3)CC2)cc1F)N1CCC(F)(F)C1 [Example 72] | 0.5 nM
17 | O=C(Cc1ccc(OCC[C@@H]2C[C@@H]2C2CCN(c3ncc(Cl)cn3)CC2)cc1F)N1CC(n2ccnc2)C1 [Example 118] | 1.1 nM
18 | O=C(Cc1ccc(OCC[C@@H]2C[C@@H]2C2CCN(c3ncc(Cl)cn3)CC2)cc1F)N1CC(O)(C(F)(F)F)C1 [Example 67] | 0.68 nM
19 | O=C(Cc1ccc(OCC[C@@H]2C[C@@H]2C2CCN(c3ncc(Cl)cn3)CC2)cc1)N1CC(F)C1 [Example 6] | 0.89 nM
20 | O=C(Cc1ccc(OCC[C@@H]2C[C@@H]2C2CCN(c3ncc(Cl)cn3)CC2)cc1F)N1CCn2nc(C(F)(F)F)nc2C1 [Example 134] | 1 nM
21 | COCc1cnc(N2CCC([C@H]3C[C@H]3CCOc3cc(F)c(CC(=O)N4CCOCC4)c(F)c3)CC2)nc1 [Example 223] | 0.38 nM
22 | O=C(Cc1ccc(OCC[C@@H]2C[C@@H]2C2CCN(c3ncc(Cl)cn3)CC2)cc1F)N1CCc2ncccc2C1 [Example 198] | 1.3 nM
23 | CC1c2nnc(C(F)(F)F)n2C(C)CN1C(=O)Cc1ccc(OCC[C@@H]2C[C@@H]2C2CCN(c3ncc(Cl)cn3)CC2)cc1F (some centres unmarked) [Example 193] | 1.1 nM
24 | COCc1cnc(N2CCC([C@H]3C[C@H]3CCOc3cc(F)c(CC(=O)N4CC(C)(O)C4)c(F)c3)CC2)nc1 [Example 221] | 2.1 nM
25 | COCc1cnc(N2CCC([C@H]3C[C@H]3CCOc3ccc(CC(=O)N4CCOCC4)c(Cl)c3)CC2)nc1 [Example 32] | 1.1 nM
26 | COCc1cnc(N2CCC([C@H]3C[C@H]3CCOc3ccc(CC(=O)N4CCC4)cc3)CC2)nc1 [Example 9] | 3.8 nM

Now from value to compound:

Row | EC50 | SMILES
27 | 1.2 nM | CCOCc1cnc(N2CCC([C@H]3C[C@H]3CCOc3ccc(CC(=O)N(C)C)c(F)c3)CC2)nc1 [Example 204]
28 | 0.79 nM | CCOCc1cnc(N2CCC([C@H]3C[C@H]3CCOc3ccc(CC(=O)N4CCC4)c(F)c3)CC2)nc1 [Example 200]
29 | 3.9 nM | C[C@H](CO)NC(=O)Cc1ccc(OCC[C@@H]2C[C@@H]2C2CCN(c3ncc(Cl)cn3)CC2)cc1F [Example 113]
30 | 9.2 nM | CCN(CC)C(=O)Cc1ccc(OCC[C@@H]2C[C@@H]2C2CCN(c3ncc(Cl)cn3)CC2)cc1F [Example 98]
31 | 6.6 nM | CN(Cc1n[nH]c(=O)[nH]1)C(=O)Cc1ccc(OCC[C@@H]2C[C@@H]2C2CCN(c3ncc(Cl)cn3)CC2)cc1F [Example 158]
32 | 7.5 nM | CC(C)(O)c1cnc(N2CCC([C@H]3C[C@H]3CCOc3ccc(CC(=O)N4CCC4)c(F)c3)CC2)nc1 [Example 205, 1-(azetidin-1-yl)-2-(2-fluoro-4-{2-[(1S,2R)-2-{1-[5-(2-hydroxypropan-2-yl]pyrimidin-2-yl]piperidin-4-yl}cyclopropyl]ethoxy}phenyl)ethanone]
33 | 0.54 nM | COCc1cnc(N2CCC([C@H]3C[C@H]3CCOc3ccc(CC(=O)N4CC(F)C4)c(F)c3)CC2)nc1 [Example 43]
34 | 1.8 nM | COCc1cnc(N2CCC([C@H]3C[C@H]3CCOc3ccc(CC(=O)N4CCOCC4)c(F)c3)CC2)nc1 [Example 46]
35 | 1.5 nM | CC(F)(F)CNC(=O)Cc1ccc(OCC[C@@H]2C[C@@H]2C2CCN(c3ncc(Cl)cn3)CC2)cc1F [Example 105]
36 | 1.2 nM | O=C(Cc1ccc(OCC[C@@H]2C[C@@H]2C2CCN(c3ncc(Cl)cn3)CC2)cc1F)N1CC(F)(F)C1 [Example 71]
37 | 0.8 nM | CC1(C)CN(C(=O)Cc2ccc(OCC[C@@H]3C[C@@H]3C3CCN(c4ncc(Cl)cn4)CC3)cc2F)C1 [Example 70]
38 | 3.7 nM | CCC(CO)NC(=O)Cc1ccc(OCC[C@@H]2C[C@@H]2C2CCN(c3ncc(Cl)cn3)CC2)cc1F (some centres unmarked) [Example 114]
39 | 3 nM | CCN(C(=O)Cc1ccc(OCC[C@@H]2C[C@@H]2C2CCN(c3ncc(Cl)cn3)CC2)cc1F)C(C)C [Example 102]
40 | 3.7 nM | CC1(NC(=O)Cc2ccc(OCC[C@@H]3C[C@@H]3C3CCN(c4ncc(Cl)cn4)CC3)cc2F)CC1 [Example 93]
41 | 1.7 nM | Cc1cc(OCC[C@@H]2C[C@@H]2C2CCN(c3ncc(Cl)cn3)CC2)ccc1CC(=O)N(C)C [Example 18, 2-[4-(2-{(1S,2R)-2-[1-(5-chloropyrimidin-2-yl)piperidin-4-yl]cyclopropyl}ethoxy)-2-methylphenyl]-N,N-dimethylacetamide]
42 | 0.77 nM | COCc1cnc(N2CCC([C@H]3C[C@H]3CCOc3ccc(CC(=O)N4CCC4)c(F)c3)CC2)nc1 [Example 41, 1-(azetidin-1yl)-2-(2-fluoro-4-{2 [(1S,2R)-2-{1-[5-(methoxylmethyl)pyrimidin-2yl]piperidin-4-yl}cyclopropyl]ethoxyl}phenyl)ethanone]
43 | 0.4 nM | CCc1cnc(N2CCC([C@H]3C[C@H]3CCOc3ccc(CC(=O)N4CCC4)c(C#N)c3)CC2)nc1 [Example 24]
44 | 1.4 nM | COCc1cnc(N2CCC([C@H]3C[C@H]3CCOc3ccc(CC(=O)N4CCC4)c(C#N)c3)CC2)nc1 [Example 25]
